Results reported in ChEMBL document CHEMBL5230123, “A comprehensive review of monoamine oxidase inhibitors as Anti-Alzheimer's disease agents: A review” (Eur J Med Chem, 2020).
pIC50: −log10 of the molar value.

How the values were obtained:
[1] = biological target: T1, Amine oxidase [flavin-containing] B (Homo sapiens, UniProt P27338); assay: Inhibition of recombinant human MAO-B using tyramine hydrochloride as substrate preincubated for 30 mins followed by substrate addition and measured after 30 mins by fluorescence assay
T1 sequence (P27338 whole entry): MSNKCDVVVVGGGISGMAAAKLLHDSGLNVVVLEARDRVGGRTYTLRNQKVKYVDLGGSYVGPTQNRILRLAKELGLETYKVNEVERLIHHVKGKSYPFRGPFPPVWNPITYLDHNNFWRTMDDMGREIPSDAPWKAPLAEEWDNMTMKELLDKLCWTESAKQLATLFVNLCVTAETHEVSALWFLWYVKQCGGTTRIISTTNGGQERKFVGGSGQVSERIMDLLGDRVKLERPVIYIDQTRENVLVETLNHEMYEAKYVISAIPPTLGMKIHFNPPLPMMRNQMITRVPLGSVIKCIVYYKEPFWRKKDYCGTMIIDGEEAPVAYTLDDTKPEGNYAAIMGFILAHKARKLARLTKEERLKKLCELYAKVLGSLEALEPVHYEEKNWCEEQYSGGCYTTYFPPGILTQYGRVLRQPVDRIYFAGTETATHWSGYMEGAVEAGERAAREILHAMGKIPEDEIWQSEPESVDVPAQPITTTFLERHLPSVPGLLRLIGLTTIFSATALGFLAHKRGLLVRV

[2] = biological target: T1, Amine oxidase [flavin-containing] B; assay: Inhibition of recombinant human MAO-B using p-tyramine as substrate incubated for 15 mins followed by substrate addition and measured upto 20 mins by Amplex Red assay
Acetylcholinesterase [3] = biological target: T2, Acetylcholinesterase (Electrophorus electricus, UniProt O42275); assay: Inhibition of electric eel AChE using acetylthiocholine iodide as substrate incubated for 6 mins followed by substrate addition by DTNB reagent based Ellman's method
T2 sequence (O42275 whole entry): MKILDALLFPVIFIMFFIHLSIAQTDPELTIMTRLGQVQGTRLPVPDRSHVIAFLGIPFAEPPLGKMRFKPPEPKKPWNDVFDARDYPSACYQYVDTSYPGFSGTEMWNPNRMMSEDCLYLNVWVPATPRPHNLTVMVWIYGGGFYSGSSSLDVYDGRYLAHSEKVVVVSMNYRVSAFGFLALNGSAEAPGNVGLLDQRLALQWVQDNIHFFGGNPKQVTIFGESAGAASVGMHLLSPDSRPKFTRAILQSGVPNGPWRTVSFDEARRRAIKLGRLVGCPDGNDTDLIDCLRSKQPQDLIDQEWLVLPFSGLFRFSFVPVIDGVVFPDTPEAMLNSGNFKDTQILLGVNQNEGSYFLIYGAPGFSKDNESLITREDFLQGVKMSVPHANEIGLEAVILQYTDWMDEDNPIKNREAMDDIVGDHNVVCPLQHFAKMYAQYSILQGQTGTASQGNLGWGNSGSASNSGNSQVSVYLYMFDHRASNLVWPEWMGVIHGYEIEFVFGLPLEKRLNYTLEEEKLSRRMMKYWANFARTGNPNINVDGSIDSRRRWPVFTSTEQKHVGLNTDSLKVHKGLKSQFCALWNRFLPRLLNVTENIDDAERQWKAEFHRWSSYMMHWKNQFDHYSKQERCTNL

Cholinesterase [4] = biological target: Cholinesterase (Equus caballus, UniProt P81908); assay: Inhibition of horse serum BuChE using butyrylthiocholine iodide as substrate preincubated for 5 mins followed by substrate addition and measured for 20 mins by DTNB reagent based Ellman's method
Chain of Cholinesterase (Equus caballus, UniProt P81908) (P81908 whole entry): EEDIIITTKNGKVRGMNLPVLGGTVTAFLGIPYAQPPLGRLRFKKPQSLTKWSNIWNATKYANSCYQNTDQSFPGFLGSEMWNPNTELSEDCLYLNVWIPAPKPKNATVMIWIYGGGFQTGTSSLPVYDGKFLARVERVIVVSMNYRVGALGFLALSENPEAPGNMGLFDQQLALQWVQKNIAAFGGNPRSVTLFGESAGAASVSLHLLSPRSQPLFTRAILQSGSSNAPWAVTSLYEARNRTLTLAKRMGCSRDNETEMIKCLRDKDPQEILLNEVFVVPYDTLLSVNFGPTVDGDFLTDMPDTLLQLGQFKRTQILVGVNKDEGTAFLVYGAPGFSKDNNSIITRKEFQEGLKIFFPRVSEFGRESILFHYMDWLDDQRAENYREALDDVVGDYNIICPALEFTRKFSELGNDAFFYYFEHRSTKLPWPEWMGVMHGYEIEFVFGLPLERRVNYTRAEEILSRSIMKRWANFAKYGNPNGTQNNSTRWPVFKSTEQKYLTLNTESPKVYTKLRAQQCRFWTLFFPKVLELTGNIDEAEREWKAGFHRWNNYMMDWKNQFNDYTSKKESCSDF

Acetylcholinesterase [5] = biological target: T2, Acetylcholinesterase; assay: Inhibition of electric eel AChE using acetylthiocholine iodide as substrate preincubated for 5 mins followed by substrate addition and measured for 20 mins by DTNB reagent based Ellman's method
[6] = biological target: T3, Amine oxidase [flavin-containing] B (Rattus norvegicus, UniProt P19643); assay: Inhibition of MAO-B expressed in Wistar rat liver preincubated for 30 mins followed by 4-(trifluoromethyl) benzylamine addition and measured after 90 mins by microplate reader analysis; format: tissue-based
T3 sequence (P19643 whole entry): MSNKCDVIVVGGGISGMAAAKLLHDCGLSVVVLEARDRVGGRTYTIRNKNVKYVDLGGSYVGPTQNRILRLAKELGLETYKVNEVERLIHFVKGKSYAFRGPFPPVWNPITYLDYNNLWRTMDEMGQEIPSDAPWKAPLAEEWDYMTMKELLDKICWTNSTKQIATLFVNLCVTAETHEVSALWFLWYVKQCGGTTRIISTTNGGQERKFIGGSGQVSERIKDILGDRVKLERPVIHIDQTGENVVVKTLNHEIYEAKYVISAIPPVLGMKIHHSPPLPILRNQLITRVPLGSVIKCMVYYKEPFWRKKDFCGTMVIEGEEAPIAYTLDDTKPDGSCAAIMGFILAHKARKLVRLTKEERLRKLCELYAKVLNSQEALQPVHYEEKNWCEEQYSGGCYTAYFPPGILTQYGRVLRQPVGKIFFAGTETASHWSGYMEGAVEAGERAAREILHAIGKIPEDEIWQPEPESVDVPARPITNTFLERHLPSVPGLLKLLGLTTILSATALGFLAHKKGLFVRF

[7] = biological target: T1, Amine oxidase [flavin-containing] B; assay: Inhibition of recombinant human MAO-B expressed in baculovirus-infected BTI insect cells using p-tyramine as substrate incubated for 45 mins by fluorescence assay
[8] = biological target: T1, Amine oxidase [flavin-containing] B; assay: Inhibition of human MAO-B using tyramine as substrate by amplex red assay
[9] = biological target: T4, Amine oxidase [flavin-containing] A (Homo sapiens, UniProt P21397); assay: Inhibition of recombinant human MAO-A using kynuramine as substrate incubated for 10 mins followed by substrate addition and measured for 20 mins by Fluorescence microplate reader assay
T4 sequence (P21397 whole entry): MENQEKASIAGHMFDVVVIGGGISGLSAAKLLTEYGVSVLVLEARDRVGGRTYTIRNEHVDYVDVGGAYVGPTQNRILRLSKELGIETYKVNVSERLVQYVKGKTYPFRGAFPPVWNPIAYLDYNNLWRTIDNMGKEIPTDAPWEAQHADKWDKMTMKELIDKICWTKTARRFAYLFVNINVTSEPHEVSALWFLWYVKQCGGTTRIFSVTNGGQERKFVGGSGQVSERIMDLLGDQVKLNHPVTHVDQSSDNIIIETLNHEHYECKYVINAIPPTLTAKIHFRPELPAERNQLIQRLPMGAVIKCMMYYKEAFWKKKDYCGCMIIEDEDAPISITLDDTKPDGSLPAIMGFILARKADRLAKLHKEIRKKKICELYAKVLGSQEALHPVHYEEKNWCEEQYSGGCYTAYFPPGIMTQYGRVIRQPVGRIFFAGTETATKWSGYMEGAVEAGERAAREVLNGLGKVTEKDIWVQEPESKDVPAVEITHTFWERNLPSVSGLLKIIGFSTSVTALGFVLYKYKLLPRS

[10] = biological target: T4, Amine oxidase [flavin-containing] A; assay: Inhibition of recombinant human MAO-A expressed in insect cells using kynuramine as substrate incubated for 20 mins by Amplex Red reagent based fluorometric method
[11] = biological target: T1, Amine oxidase [flavin-containing] B; assay: Inhibition of recombinant human MAO-B expressed in insect cells using kynuramine as substrate incubated for 20 mins by Amplex Red reagent based fluorometric method
Homo sapiens = species on record: Homo sapiens; assay: Selectivity index, ratio of IC50 for inhibition of recombinant human MAO-B to IC50 for inhibition of recombinant human MAO-A
[12] = biological target: T4, Amine oxidase [flavin-containing] A; assay: Inhibition of recombinant human MAO-A using p-tyramine as substrate incubated for 15 mins followed by substrate addition and measured for 15 to 20 mins by Amplex Red assay
[13] = biological target: Cholinesterase (Equus caballus) (UniProt P81908); assay: Inhibition of horse serum BuChE using butyrylthiocholine iodide as substrate at 10 uM incubated for 6 mins followed by substrate addition by DTNB reagent based Ellman's method
Chain of Cholinesterase (Equus caballus) (P81908 whole entry): as the sequence (P81908 whole entry) above

[14] = biological target: T4, Amine oxidase [flavin-containing] A; assay: Inhibition of MAO-A (unknown origin) using kynuramine as substrate preincubated for 10 mins followed by substrate addition and measured after 20 mins by fluorescence microplate reader assay
[15] = biological target: T1, Amine oxidase [flavin-containing] B; assay: Inhibition of MAO-B (unknown origin) using kynuramine as substrate preincubated for 10 mins followed by substrate addition and measured after 20 mins by fluorescence microplate reader assay
[16] = biological target: T4, Amine oxidase [flavin-containing] A; assay: Inhibition of MAO-A (unknown origin) using kynuramine as substrate by spectrophotometric assay
[17] = biological target: T1, Amine oxidase [flavin-containing] B; assay: Inhibition of MAO-B (unknown origin) using benzylamine as substrate by spectrophotometric assay
[18] = biological target: T4, Amine oxidase [flavin-containing] A; assay: Inhibition of human MAO-A using p-tyramine as substrate preincubated for 15 mins followed by substrate addition and measured after 30 mins by Ample red assay
Cholinesterase [19] = biological target: Cholinesterase (Homo sapiens, UniProt P06276); assay: Inhibition of human BuChE using butyrylthiocholine iodide as substrate preincubated for 30 mins followed by substrate addition and measured after 15 mins by Ellman's method
Chain of Cholinesterase (Homo sapiens, UniProt P06276) (P06276 whole entry): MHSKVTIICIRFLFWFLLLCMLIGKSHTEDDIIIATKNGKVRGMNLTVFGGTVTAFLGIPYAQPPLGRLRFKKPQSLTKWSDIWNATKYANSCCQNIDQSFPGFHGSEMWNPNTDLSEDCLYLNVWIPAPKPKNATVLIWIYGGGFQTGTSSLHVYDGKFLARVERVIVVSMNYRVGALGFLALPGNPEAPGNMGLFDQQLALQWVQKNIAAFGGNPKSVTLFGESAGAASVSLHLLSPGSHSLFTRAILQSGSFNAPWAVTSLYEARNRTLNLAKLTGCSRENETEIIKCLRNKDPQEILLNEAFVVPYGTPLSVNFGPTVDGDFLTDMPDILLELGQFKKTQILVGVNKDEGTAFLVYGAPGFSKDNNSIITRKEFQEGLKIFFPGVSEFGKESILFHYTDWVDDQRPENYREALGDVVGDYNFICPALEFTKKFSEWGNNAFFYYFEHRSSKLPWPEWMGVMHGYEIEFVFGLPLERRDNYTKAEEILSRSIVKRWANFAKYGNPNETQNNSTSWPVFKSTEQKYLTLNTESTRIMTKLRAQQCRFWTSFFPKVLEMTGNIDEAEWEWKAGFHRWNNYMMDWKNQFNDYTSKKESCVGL

Acetylcholinesterase [20] = biological target: Acetylcholinesterase (Homo sapiens, UniProt P22303); assay: Inhibition of recombinant human AChE using acetylcholine as substrate preincubated for 15 mins followed by substrate addition and measured after 30 mins by Amplex Red reagent based fluorescence assay
Chain of Acetylcholinesterase (Homo sapiens, UniProt P22303) (P22303 whole entry): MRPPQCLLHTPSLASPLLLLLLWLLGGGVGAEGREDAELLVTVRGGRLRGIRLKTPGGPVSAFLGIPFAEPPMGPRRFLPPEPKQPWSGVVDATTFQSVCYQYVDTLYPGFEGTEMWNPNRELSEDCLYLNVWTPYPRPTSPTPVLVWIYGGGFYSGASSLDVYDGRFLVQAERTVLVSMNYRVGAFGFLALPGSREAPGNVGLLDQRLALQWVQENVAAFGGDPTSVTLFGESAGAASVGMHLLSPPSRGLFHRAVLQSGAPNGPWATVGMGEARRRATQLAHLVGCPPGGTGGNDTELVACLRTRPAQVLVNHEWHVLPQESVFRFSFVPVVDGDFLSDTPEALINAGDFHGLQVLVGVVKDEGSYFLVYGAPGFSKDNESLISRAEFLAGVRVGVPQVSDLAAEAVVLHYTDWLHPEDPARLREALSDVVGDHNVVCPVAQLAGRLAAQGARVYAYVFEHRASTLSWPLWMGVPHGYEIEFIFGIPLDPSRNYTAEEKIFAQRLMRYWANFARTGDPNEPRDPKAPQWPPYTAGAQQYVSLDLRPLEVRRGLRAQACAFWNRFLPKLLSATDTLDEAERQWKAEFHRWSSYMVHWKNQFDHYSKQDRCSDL

[21] = biological target: T1, Amine oxidase [flavin-containing] B; assay: Inhibition of MAO-B (unknown origin) using as tyramine as substrate by Ampliflu red reagent based fluorometric method
[22] = biological target: T1, Amine oxidase [flavin-containing] B; assay: Inhibition of recombinant human MAO-B using kynuramine as substrate incubated for 20 min by fluorescent spectrophotometric assay
[23] = biological target: Acetylcholinesterase (Electrophorus electricus) (UniProt O42275); assay: Inhibition of electric eel AChE using acetylthiocholine iodide as substrate at 1 uM preincubated for 5 mins followed by substrate addition and measured for 20 mins by DTNB reagent based Ellman's method
Chain of Acetylcholinesterase (Electrophorus electricus) (O42275 24-633 limits assumed): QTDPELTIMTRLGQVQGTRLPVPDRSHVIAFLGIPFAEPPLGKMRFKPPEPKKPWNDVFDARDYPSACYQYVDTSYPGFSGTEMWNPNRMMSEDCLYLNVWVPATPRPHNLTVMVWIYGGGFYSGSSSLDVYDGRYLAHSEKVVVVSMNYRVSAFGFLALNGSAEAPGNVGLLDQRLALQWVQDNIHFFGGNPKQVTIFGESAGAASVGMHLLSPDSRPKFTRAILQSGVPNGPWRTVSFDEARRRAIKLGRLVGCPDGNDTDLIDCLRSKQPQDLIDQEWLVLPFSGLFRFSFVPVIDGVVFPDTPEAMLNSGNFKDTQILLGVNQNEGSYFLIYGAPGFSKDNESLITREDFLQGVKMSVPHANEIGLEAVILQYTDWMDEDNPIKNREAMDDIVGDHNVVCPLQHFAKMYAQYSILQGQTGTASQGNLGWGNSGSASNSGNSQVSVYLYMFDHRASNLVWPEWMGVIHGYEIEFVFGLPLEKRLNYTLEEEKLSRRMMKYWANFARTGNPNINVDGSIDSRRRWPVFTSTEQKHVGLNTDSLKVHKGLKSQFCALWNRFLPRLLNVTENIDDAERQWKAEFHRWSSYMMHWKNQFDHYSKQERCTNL

Question: How did the pIC50 [1] turn out when `CC1CCCCN1c1ccc(/C=N/Nc2ccccc2)cc1` (centres undefined) was run?
Answer: Its pIC50 is 6.47.

Question: What does the source list for `Cc1c(Cl)c(=O)oc2cc(OCCCCSC(=S)N3C(C)CCCC3C)ccc12` (centres undefined)?
Answer: pIC50 [2]: 7.00; pIC50 (Acetylcholinesterase [3]): 6.94

Question: `O=c1oc2c(O)c(O)ccc2cc1-c1ccc(O)c(O)c1` was tested. Which pIC50 (Cholinesterase [4]) did it give?
Answer: Its pIC50 is 5.08.

Question: And the pIC50 (Acetylcholinesterase [5])?
Answer: The pIC50 was 5.52.

Question: And the pIC50 [6]?
Answer: Its pIC50 is 4.57.

Question: With `Cn1ccc2cc(C(=S)Nc3ccc(F)cc3)ccc21` as the compound, how does the pIC50 [7] read?
Answer: Its pIC50 is 7.55.

Question: With `Cc1ccc(C2=NO[C@H](c3ccc(Cl)c(Cl)c3)C2)cc1` as the compound, how does the pIC50 [8] read?
Answer: The pIC50 was 4.96.

Question: `CCOc1ccc([N+](=O)[O-])c(N/N=C/c2ccccn2)n1` was tested. Which pIC50 [9] did it give?
Answer: The pIC50 was 5.02.

Question: Which results are given for `CCCCOc1ccc(C2=NN(C(N)=S)C(c3ccccc3)C2)cc1` (centres undefined)?
Answer: pIC50 [10]: 5.44; pIC50 [11]: 6.42; Ratio IC50 (Homo sapiens): 9.55

Question: With `Cc1c(Cl)c(=O)oc2cc(OCCCSC(=S)N3C(C)CCCC3C)ccc12` (centres undefined) as the compound, how does the pIC50 [2] read?
Answer: Its pIC50 is 7.00.

Question: What about the pIC50 (Acetylcholinesterase [3]) of the same compound?
Answer: Its pIC50 is 7.36.

Question: And the pIC50 [12]?
Answer: Its pIC50 is 5.23.

Question: What about the inhibition [13] of the same compound?
Answer: Its inhibition is 23.3%.

Question: `CCOc1ccc([N+](=O)[O-])c(N/N=C/c2ccc(O)cc2)n1` was tested. Which pIC50 [14] did it give?
Answer: The pIC50 was 5.20.

Question: And the pIC50 [15]?
Answer: The pIC50 was 5.03.

Question: What does the source list for `Cc1c(Cl)c(=O)oc2cc(OCCCCSC(=S)N3CCCCC3C)ccc12` (centres undefined)?
Answer: pIC50 [2]: 8.05; pIC50 (Acetylcholinesterase [3]): 8.17

Question: How did the pIC50 [16] turn out when `O=C(/C=C/c1cccc(F)c1)c1ccc(N2CCOCC2)cc1` was run?
Answer: Its pIC50 is 4.35.

Question: And the pIC50 [17]?
Answer: The pIC50 was 7.06.

Question: Which results are given for `C#CCOc1ccc(-c2cc(-c3ccc(OCCN4CCOCC4)cc3)nc(N)n2)cc1`?
Answer: pIC50 [18]: 7.74; pIC50 (Cholinesterase [19]): 6.18; pIC50 (Acetylcholinesterase [20]): 7.52

Question: How did the pIC50 [8] turn out when `Cc1ccc(C2=NOC(c3ccc(Cl)c(Cl)c3)C2)cc1` (centres undefined) was run?
Answer: Its pIC50 is 7.92.

Question: With `Cn1cc(/N=C/c2ccc([N+](=O)[O-])cc2)c(=O)n1-c1ccccc1` as the compound, how does the pIC50 [21] read?
Answer: Its pIC50 is 7.31.

Question: With `O=c1cc(OCCN2CCOCC2)c2ccccc2o1` as the compound, how does the pIC50 [22] read?
Answer: Its pIC50 is 6.43.

Question: With `O=c1ccc2ccc(OCCN3CCCCC3)cc2o1` as the compound, how does the inhibition [23] read?
Answer: The inhibition was 30.9%.
